Our source for the inhibition values is ChEMBL document CHEMBL5058642, “Data for DCP probe TP-051” (2022).

Molecules are shown by their SMILES.

In series [1] the target is T1, 5-hydroxytryptamine receptor 3A (Homo sapiens) (UniProt P46098).
T1 sequence (whole entry): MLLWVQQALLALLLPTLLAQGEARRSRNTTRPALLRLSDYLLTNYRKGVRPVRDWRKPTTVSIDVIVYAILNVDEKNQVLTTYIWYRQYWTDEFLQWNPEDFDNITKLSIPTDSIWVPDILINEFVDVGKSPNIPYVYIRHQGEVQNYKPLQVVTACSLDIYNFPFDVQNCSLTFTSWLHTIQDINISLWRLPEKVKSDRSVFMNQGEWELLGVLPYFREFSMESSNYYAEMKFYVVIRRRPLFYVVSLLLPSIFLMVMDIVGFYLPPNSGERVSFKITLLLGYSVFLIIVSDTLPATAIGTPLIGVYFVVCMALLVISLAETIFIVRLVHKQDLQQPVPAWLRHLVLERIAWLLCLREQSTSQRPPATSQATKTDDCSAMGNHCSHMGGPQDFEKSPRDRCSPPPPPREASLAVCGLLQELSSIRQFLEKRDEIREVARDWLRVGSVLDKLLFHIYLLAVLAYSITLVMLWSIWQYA
The note with it: Compound concentration 10.0 uM.

For series [2], the target named is Beta-3 adrenergic receptor (Homo sapiens) (UniProt P13945). The note with it: Compound concentration 10.0 uM.
The next series concerns the target D(3) dopamine receptor (Homo sapiens, UniProt P35462). The note with it: Compound concentration 10.0 uM.
The target of series [3] is Estrogen receptor (Homo sapiens) (UniProt P03372). The note with it: Compound concentration 10.0 uM.
Series [4] concerns the target Gamma-aminobutyric acid type B receptor subunit 1 (Homo sapiens) (UniProt Q9UBS5). As to the kind of experiment: GABAB1A Eurofins-Panlabs radioligand binding assay. Particulars: Compound concentration 10.0 uM; call rule not given here.
The target of series [5] is 5-hydroxytryptamine receptor 1B (Homo sapiens) (UniProt P28222). Particulars: Compound concentration 10.0 uM.
The target in series [6] is D(2) dopamine receptor (Homo sapiens) (UniProt P14416). Particulars: Compound concentration 10.0 uM.
Series [7] concerns the target Voltage-dependent N-type calcium channel subunit alpha-1B (Homo sapiens) (UniProt Q00975). As to the kind of experiment: Inhibition of Calcium Channel N-Type at 10 µM in the Eurofins-Panlabs radioligand binding assay (Eurofins_assay_216000). The note with it: Rattus norvegicus; Compound concentration 10.0 uM.
Series [8] has as its target Muscarinic acetylcholine receptor M3 (Homo sapiens) (UniProt P20309). Briefly: Muscarinic M3 Eurofins-Panlabs radioligand binding assay. The note with it: Compound concentration 10.0 uM.
The target in series [9] is Alpha-2B adrenergic receptor (Homo sapiens) (UniProt P18089). Particulars: Compound concentration 10.0 uM.
In series [10] the target is Adenosine receptor A2a (Homo sapiens) (UniProt P29274). Particulars: Compound concentration 10.0 uM.
In series [11] the target is Sigma intracellular receptor 2 (Homo sapiens) (UniProt Q5BJF2). The note with it: Compound concentration 10.0 uM.
In series [12] the target is Type-2 angiotensin II receptor (Homo sapiens) (UniProt P50052). As to the kind of experiment: Angiotensin AT2 Eurofins-Panlabs radioligand binding assay. Type of series: protein assay. The note with it: Compound concentration 10.0 uM.
Series [13] has as its target GABA-A receptor; anion channel (Rattus norvegicus) (UniProt O09028+P15431+P18506+P18508+P19969+P20236+P23574+P23576+P28471+P28473+P30191+P62813+P63079+P63138+Q91ZM7+Q9ES14). Particulars: Compound concentration 10.0 uM.
Series [14] concerns the target T2, Muscarinic acetylcholine receptor M1 (Homo sapiens) (UniProt P11229).
T2 sequence (whole entry): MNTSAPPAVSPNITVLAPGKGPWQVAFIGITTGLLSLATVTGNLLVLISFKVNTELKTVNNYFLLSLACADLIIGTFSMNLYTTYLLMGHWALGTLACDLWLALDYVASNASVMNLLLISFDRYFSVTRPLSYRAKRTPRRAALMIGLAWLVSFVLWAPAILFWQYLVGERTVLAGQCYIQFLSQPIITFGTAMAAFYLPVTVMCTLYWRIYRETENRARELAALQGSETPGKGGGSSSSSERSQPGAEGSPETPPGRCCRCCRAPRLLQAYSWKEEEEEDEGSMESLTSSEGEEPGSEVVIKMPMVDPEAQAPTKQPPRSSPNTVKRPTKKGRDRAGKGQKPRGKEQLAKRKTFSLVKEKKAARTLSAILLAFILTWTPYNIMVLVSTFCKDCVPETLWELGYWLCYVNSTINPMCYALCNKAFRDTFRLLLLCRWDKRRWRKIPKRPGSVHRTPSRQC
Particulars: Compound concentration 10.0 uM.

The species named for a further series is Homo sapiens. As to the kind of experiment: Prostanoid, Thromboxane A2 (TP) Eurofins-Panlabs radioligand binding assay. Set-up: ligand concentration 5 nM, non-specific ligand with concentration 1 µM SQ-29548, incubation time 30 min, incubation temperature 25 °C. The note with it: Compound concentration 10.0 uM.
The target of series [15] is Sodium-dependent dopamine transporter (Homo sapiens, UniProt Q01959). Particulars: Compound concentration 10.0 uM.
Series [16] concerns the target Substance-P receptor (Homo sapiens) (UniProt P25103). As to the kind of experiment: Tachykinin NK1 Eurofins-Panlabs radioligand binding assay. Particulars: Compound concentration 10.0 uM.
Series [17] has as its target T3, D(4) dopamine receptor (Homo sapiens) (UniProt P21917).
T3 sequence (whole entry): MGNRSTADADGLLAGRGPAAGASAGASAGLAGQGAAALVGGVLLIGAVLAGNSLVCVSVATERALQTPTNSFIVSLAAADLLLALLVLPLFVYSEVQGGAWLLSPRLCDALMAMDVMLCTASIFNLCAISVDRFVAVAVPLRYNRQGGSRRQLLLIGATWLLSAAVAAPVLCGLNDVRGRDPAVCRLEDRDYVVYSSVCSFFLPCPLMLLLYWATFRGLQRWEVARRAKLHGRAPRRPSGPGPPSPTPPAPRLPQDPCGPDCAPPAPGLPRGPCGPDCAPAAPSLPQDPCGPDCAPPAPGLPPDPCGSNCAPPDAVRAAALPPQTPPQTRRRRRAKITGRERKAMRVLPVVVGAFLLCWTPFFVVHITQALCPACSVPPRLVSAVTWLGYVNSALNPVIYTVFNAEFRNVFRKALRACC
Particulars: Compound concentration 10.0 uM.

The target in series [18] is voltage-gated sodium channel, site 2 (Rattus norvegicus, UniProt F1LQQ7+O08562+O88420+O88457+P04774+P04775+P08104+P15389+P15390+Q62968). As to the kind of experiment: Inhibition of Sodium Channel, Site 2 at 10 µM in the Eurofins-Panlabs radioligand binding assay (Eurofins_assay_279510). In kind it is protein assay. Set-up: ligand concentration 5 nM, non-specific ligand with concentration 100 µM Veratridine, incubation time 60 min, incubation temperature 37 °C. The note with it: male, Wistar, rat whole brain (except cerebellum) membranes, probe [3H] Batrachotoxinin, 5 nM, compound concentration 10 uM.

For a further series, the species on record is Rattus norvegicus. As to the kind of experiment: Potassium Channel [SKCA] Eurofins-Panlabs radioligand binding assay. Particulars: Compound concentration 10.0 uM. Set-up: ligand concentration 0.005 nM.
Series [19] concerns the target Histamine H1 receptor (Homo sapiens) (UniProt P35367). Particulars: Compound concentration 10.0 uM.

D(2) dopamine receptor (Homo sapiens), sequence (P14416 whole entry): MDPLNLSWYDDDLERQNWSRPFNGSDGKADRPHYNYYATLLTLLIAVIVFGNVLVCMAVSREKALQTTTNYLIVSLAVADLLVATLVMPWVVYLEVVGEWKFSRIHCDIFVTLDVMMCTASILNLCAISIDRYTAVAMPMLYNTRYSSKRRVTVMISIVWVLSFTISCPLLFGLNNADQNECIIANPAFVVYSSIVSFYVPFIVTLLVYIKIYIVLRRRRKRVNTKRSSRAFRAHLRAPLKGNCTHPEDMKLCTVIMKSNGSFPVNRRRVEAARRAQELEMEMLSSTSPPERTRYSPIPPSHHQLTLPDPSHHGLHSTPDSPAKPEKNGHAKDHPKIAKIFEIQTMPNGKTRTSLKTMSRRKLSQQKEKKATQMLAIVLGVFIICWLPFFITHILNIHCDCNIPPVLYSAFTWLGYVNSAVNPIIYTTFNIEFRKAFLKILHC
Estrogen receptor (Homo sapiens), sequence (P03372 whole entry): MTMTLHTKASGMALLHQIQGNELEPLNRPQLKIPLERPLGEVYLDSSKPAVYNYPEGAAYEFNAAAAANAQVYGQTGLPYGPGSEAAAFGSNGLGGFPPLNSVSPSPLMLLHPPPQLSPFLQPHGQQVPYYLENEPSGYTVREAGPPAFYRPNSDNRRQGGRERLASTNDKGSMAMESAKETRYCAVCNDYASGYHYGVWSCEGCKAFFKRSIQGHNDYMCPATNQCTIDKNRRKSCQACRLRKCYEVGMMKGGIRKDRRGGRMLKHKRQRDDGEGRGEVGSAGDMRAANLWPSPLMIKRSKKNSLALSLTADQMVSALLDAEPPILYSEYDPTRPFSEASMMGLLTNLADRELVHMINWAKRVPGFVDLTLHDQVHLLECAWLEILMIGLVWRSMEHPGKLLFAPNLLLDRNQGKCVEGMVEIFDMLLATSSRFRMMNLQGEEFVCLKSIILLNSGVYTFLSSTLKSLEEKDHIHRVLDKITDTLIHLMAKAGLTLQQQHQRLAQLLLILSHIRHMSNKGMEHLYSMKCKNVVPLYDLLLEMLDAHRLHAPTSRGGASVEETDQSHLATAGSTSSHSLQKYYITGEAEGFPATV
Alpha-2B adrenergic receptor (Homo sapiens), sequence (P18089 whole entry): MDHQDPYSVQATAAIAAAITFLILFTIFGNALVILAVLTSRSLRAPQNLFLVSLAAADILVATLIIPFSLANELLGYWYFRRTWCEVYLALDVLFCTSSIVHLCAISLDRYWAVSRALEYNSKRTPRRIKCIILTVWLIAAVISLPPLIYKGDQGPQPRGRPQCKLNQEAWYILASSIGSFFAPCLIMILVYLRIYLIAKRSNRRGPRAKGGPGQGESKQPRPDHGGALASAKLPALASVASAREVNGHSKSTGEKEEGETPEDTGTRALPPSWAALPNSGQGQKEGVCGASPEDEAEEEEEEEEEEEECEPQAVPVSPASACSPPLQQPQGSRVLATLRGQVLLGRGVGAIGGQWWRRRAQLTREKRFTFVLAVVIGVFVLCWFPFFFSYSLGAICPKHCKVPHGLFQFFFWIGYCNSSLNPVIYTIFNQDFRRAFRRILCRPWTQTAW
Adenosine receptor A2a (Homo sapiens), sequence (P29274 whole entry): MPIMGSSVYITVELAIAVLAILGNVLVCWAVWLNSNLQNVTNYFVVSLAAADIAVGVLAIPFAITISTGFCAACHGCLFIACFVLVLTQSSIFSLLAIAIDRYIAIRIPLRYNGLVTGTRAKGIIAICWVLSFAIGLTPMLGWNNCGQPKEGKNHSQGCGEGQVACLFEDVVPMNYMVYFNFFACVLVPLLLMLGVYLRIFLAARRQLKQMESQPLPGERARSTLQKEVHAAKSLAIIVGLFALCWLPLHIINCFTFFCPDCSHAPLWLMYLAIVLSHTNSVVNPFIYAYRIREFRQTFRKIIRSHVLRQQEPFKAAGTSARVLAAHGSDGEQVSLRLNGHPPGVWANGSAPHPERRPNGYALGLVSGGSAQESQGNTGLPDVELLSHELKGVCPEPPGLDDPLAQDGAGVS
Histamine H1 receptor (Homo sapiens), sequence (P35367 whole entry): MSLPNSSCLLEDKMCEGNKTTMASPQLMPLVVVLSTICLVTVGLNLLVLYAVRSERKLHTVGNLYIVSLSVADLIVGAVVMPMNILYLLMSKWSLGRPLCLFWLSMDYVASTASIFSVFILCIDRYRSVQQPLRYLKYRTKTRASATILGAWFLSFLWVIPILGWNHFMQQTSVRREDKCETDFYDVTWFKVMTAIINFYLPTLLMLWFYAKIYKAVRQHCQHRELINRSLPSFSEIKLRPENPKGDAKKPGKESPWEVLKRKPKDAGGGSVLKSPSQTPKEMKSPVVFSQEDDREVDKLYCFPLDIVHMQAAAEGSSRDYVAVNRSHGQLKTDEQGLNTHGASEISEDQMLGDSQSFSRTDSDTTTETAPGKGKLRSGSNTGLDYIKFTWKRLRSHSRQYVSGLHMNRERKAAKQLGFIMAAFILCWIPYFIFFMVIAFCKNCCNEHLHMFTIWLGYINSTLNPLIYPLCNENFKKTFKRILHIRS
5-hydroxytryptamine receptor 1B (Homo sapiens), sequence (P28222 whole entry): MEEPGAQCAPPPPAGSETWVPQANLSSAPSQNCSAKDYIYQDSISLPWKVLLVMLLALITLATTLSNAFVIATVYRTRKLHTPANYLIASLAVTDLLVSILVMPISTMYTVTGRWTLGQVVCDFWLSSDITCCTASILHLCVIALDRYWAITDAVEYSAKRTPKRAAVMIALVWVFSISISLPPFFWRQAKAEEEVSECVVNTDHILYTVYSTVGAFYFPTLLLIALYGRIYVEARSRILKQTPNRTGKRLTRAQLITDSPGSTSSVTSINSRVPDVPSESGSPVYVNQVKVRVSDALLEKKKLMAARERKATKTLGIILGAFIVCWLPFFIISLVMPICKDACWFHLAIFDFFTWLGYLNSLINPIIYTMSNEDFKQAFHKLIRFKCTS
Sodium-dependent dopamine transporter, sequence (Q01959 whole entry): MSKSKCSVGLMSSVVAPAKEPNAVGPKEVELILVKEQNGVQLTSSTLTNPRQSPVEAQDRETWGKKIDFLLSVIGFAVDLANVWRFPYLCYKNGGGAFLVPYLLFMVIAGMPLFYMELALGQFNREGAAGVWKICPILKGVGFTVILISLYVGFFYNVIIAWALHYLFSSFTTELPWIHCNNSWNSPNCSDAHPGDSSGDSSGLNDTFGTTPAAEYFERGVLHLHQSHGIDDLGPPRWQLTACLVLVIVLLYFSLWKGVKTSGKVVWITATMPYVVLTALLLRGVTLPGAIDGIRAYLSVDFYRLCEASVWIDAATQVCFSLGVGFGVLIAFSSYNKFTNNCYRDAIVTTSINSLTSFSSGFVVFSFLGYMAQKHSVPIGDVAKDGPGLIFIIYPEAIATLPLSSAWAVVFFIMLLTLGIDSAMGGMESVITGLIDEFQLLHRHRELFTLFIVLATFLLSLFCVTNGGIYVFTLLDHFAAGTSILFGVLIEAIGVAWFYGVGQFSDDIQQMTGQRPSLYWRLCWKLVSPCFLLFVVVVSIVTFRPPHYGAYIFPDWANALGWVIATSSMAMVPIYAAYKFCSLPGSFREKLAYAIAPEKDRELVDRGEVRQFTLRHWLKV
Muscarinic acetylcholine receptor M3 (Homo sapiens), sequence (P20309 whole entry, looked up): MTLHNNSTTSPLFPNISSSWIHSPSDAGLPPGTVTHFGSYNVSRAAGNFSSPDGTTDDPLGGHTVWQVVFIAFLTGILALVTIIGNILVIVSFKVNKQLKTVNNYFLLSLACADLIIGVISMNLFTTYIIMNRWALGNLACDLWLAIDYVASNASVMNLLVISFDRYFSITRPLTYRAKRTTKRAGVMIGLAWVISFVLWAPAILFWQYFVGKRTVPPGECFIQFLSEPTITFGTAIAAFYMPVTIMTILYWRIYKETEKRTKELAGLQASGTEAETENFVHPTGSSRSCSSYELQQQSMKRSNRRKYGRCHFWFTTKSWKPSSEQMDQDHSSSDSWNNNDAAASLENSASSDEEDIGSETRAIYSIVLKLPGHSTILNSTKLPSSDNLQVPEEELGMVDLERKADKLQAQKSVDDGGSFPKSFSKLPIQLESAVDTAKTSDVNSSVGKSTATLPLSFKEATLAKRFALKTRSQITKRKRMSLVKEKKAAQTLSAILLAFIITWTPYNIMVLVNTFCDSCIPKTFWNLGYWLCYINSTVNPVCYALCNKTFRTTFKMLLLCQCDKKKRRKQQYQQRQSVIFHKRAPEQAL
D(3) dopamine receptor, sequence (P35462 whole entry): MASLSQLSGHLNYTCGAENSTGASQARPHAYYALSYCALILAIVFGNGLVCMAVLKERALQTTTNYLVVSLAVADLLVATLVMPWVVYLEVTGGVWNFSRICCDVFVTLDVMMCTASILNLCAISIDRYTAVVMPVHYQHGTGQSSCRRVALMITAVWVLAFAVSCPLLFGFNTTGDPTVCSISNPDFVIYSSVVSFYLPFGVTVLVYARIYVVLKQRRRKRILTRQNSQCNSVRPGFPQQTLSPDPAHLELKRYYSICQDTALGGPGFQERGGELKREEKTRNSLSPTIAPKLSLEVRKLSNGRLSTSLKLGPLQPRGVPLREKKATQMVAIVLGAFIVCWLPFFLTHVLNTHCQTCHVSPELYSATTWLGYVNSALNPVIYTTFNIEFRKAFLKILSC
Beta-3 adrenergic receptor (Homo sapiens), sequence (P13945 whole entry, looked up): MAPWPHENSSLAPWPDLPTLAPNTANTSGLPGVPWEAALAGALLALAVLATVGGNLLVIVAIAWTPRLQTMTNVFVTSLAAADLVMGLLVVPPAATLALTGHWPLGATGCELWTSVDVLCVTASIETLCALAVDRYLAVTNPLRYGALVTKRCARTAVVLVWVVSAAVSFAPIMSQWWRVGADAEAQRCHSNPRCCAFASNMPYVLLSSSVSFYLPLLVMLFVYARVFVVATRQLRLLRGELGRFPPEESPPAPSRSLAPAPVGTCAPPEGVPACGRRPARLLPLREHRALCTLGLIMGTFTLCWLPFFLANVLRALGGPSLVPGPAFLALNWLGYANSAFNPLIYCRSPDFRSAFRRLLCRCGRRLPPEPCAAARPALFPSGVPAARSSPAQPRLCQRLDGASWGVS
Sigma intracellular receptor 2 (Homo sapiens), sequence (Q5BJF2 whole entry): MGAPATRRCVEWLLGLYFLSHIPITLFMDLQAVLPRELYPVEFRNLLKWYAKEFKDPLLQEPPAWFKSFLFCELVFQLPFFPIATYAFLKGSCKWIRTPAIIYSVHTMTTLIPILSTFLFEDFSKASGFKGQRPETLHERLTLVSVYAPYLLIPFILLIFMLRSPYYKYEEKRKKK

Take `Cc1cc(OC2CCS(=O)(=O)CC2)cc(C)c1-c1cccc(COc2ccc(C(=O)O)c(F)c2)c1`: the inhibition (usually the change of the read-out against control, counted positive when it falls) was -5.96% in [1]; 6.71% in series [2]; 7.34% on D(3) dopamine receptor; 7% in series [3]; 20% in series [4]; 23.2% in series [5]. Also, the inhibition in series [6] is 8.6%; in series [7], -9%; in series [8], 1%; in series [9], -0.21%; in [10], 10%; in series [11], 1.49%. For the same compound, the inhibition in series [12] is 1%; in [13], 14%; in series [14], -1.5%; in the series listed under Homo sapiens, 28%; in series [15] it was 42.2%; in series [16], 3%. In addition, the inhibition was 7.27% in series [17], 1% in the series filed under Rattus norvegicus and -2.18% in [19]. For the same compound, the inhibition at 60 min, 10 µM in [18] was -5% (not active).
For `Cc1cc(OC2CCS(=O)(=O)CC2)cc(C)c1-c1cccc(COc2ccc(CCC(=O)O)c(F)c2)c1`, the inhibition was 6.06% in series [1]; -5.43% in series [2]; 59.6% at D(3) dopamine receptor; 3% in series [3]; 7% in [4]; 19.3% in series [5]. The inhibition was 16.6% in [6]; -4% in series [7]; 4% in [8]; 13.1% in series [9]; 5% in series [10]; 19.6% in [11]. Further, the inhibition in series [12] was -4%; in series [13], 21%; in series [14] it was 15.8%; in the series filed under Homo sapiens, 60%; in [15], 53.7%; in series [16], 17%. Also, the inhibition in [17] is 85.4%; in the series listed under Rattus norvegicus, -5%; in series [19] it was 12%. For the same compound, the inhibition at 60 min, 10 µM in [18] is 6% (not active).
